Measurements published in patent US20200369626A1 (Washington University, priority 2019, published 2020).

Target: T1, S1PR2 (Homo sapiens, UniProt O95136)
T1 construct: purchased
Experiment: competitive [^32P]S1P binding assay on cell membranes, S1PR2
Settings: Table 5; read-out: IC50 S1PR2

T1 sequence (O95136 whole entry): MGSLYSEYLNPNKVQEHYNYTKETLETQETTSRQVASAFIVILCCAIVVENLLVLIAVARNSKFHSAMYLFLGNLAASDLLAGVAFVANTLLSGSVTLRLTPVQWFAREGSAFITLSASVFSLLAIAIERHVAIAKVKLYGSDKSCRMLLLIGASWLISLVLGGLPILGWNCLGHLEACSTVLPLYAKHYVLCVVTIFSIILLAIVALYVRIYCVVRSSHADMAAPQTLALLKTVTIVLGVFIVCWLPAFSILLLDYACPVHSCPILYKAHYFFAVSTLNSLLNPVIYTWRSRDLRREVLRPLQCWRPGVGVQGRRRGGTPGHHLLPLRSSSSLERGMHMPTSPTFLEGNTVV

Row | IC50 [µM] | SMILES
1 | > 1 | CC(C)CC1(O)CCN(c2nc3cc(Oc4ccc(F)cc4)cc([N+](=O)[O-])c3o2)CC1 [TZ57-045]
2 | > 1 | CS(=O)(=O)c1ccc(Oc2nc(NC(=O)N3CCc4ccccc4C3)nc(C(F)(F)F)n2)cc1 [TZ57-047]
3 | > 1 | CCC(CC)CC1(OC)CCN(C(=O)Nc2cc(Oc3ccc(F)cc3)cc(Oc3ccc(S(C)(=O)=O)cc3)c2)CC1 [TZ57-054]
4 | > 1 | CS(=O)(=O)c1ccc(Oc2cc(NC(=O)N(CCO)C3CCCCC3)cc(Oc3ccc(F)cc3)c2)cc1 [TZ57-062]
5 | > 1 | CC(C)C(=O)C1CCN(C(=O)Nc2cc(Oc3ccc(F)cc3)cc(Oc3ccc(S(C)(=O)=O)cc3)c2)CC1 [TZ57-063]
6 | > 1 | CC(C)C(O)C1CCN(C(=O)Nc2cc(Oc3ccc(F)cc3)cc(Oc3ccc(S(C)(=O)=O)cc3)c2)CC1 (stereo not drawn) [TZ57-065]
7 | > 1 | CCC(CC)CC1(O)CCN(C(=O)Nc2cc(Oc3ccc(F)cc3)cc(OC3CCN(C(C)=O)CC3)c2)CC1 [TZ57-080]
8 | 0.292 ± 0.121 | CCC(CC)CC1(O)CCN(C(=O)Nc2cc(Oc3ccc(F)cc3)cc(OC3CCN(S(C)(=O)=O)CC3)c2)CC1 [TZ57-081]
9 | > 1 | CS(=O)(=O)c1ccc(Oc2cc(NC(=O)N3CC[C@@]4(O)CCCC[C@H]4C3)cc(Oc3ccc(F)cc3)c2)cc1 [TZ57-091]
10 | > 1 | CNC(=O)c1ccc(Oc2cc(NC(=O)N3CC[C@@]4(O)CCCC[C@H]4C3)cc(Oc3ccc(F)cc3)c2)cc1 [TZ57-096]
11 | > 1 | CCC(CC)CC1(O)CCN(C(=O)Nc2ccc(Oc3ccc(F)cc3)cc2)CC1 [TZ57-103]
12 | > 1 | CCC(CC)CC1(O)CCN(C(=O)Nc2ccc(Oc3ccc(S(C)(=O)=O)cc3)cc2)CC1 [TZ57-104]
13 | > 1 | CC(C)CC1(O)CCN(C(=O)Nc2ccc(NC(=O)N3CCC(O)(CC(C)C)CC3)cc2)CC1 [TZ57-112]
14 | > 1 | CC(C)CC1(O)CCN(C(=O)Nc2cccc(NC(=O)N3CCC(O)(CC(C)C)CC3)c2)CC1 [TZ57-115]
15 | > 1 | CC(C)CC1(O)CN(C(=O)Nc2cc(Oc3ccc(F)cc3)cc(Oc3ccc(S(C)(=O)=O)cc3)c2)C1 [TZ57-119]
16 | 0.122 ± 0.029 | CC(C)CC1(O)CCN(C(=O)Nc2cc(Oc3ccc(F)cc3)cc(Oc3ccc(S(C)(=O)=O)cc3)c2)C1 (stereo not drawn) [TZ57-120]
17 | 0.654 ± 0.349 | CC(C)CC1(O)CC(C(=O)Nc2cc(Oc3ccc(F)cc3)cc(Oc3ccc(S(C)(=O)=O)cc3)c2)C1 (stereo not drawn) [TZ57-121]
18 | 0.077 ± 0.016 | CNC(=O)c1ccc(Oc2cc(NC(=O)N3CCC(O)(CC(C)C)C3)cc(Oc3ccc(F)cc3)c2)cc1 (stereo not drawn) [TZ57-122]
19 | > 1 | CCC(CC)CC1(O)CCN(C(=O)Nc2cc(Oc3ccc(B4OC(C)(C)C(C)(C)O4)cc3)cc(Sc3ccc(S(C)(=O)=O)cc3)c2)CC1 [TZ57-150]
20 | 0.143 ± 0.03 | CCC(CC)CC1(O)CCN(C(=O)Nc2cc(Oc3ccc(S(C)(=O)=O)cc3)cc(Sc3ccc(F)cc3)c2)CC1 [TZ57-155]
21 | 0.067 ± 0.01 | CCC(CC)CC1(O)CCN(C(=O)Nc2cc(Sc3ccc(F)cc3)cc(Sc3ccc(S(C)(=O)=O)cc3)c2)CC1 [TZ57-158]

Row | IC50 [µM] | SMILES
22 | > 1 | CCC(CC)CC1(O)CCN(C(=O)Nc2cc(C)cc(Oc3ccc(S(C)(=O)=O)cc3)c2)CC1 [TZ59-008]
23 | > 1 | CCC(CC)CC1(O)CCN(C(=O)Nc2cc(C#N)cc(Oc3ccc(S(C)(=O)=O)cc3)c2)CC1 [TZ59-014]
24 | > 1 | CCC(CC)CC1(O)CCN(C(=O)Nc2cc(C(C)C)c3c(C)nn(C)c3n2)CC1 [TZ59-023]
25 | > 1 | CCC(CC)CC1(O)CCN(C(=O)Nc2cc(NC(=O)N3CCC(O)(CC(CC)CC)CC3)cc(C(F)(F)F)c2)CC1 [TZ59-039]
26 | > 1 | CCC(CC)CC1(O)CCN(C(=O)Nc2cc(F)cc(C(F)(F)F)c2)CC1 [TZ59-042]
27 | > 1 | CCC(CC)CC1(O)CCN(C(=O)Nc2cc(OCCF)cc(C(F)(F)F)c2)CC1 [TZ59-044]
28 | > 1 | CCC(CC)CC1(O)CCN(C(=O)Nc2cc(OC)cc(C(F)(F)F)c2)CC1 [TZ59-046]
29 | > 1 | CCC(CC)CC1(O)CCN(C(=O)Nc2cc(N(C(=O)OC(C)(C)C)c3ccc(S(C)(=O)=O)cc3)cc(C(F)(F)F)c2)CC1 [TZ59-061]
30 | > 1 | CCC(CC)CC1(O)CCN(C(=O)Nc2cc(Nc3ccc(S(C)(=O)=O)cc3)cc(C(F)(F)F)c2)CC1 [TZ59-062]
31 | > 1 | CCC(CC)CC1(O)CCN(C(=O)Nc2cc(F)cc(C(O)c3ccc(S(C)(=O)=O)cc3)c2)CC1 (stereo not drawn) [TZ59-080]
32 | > 1 | CCC(CC)CC1(O)CCN(C(=O)Nc2cc(C(=O)c3ccc(C(=O)NC)cc3)cc(C(F)(F)F)c2)CC1 [TZ59-089]
33 | 0.7 ± 0.111 | CCC(CC)CC1(O)CCN(C(=O)Nc2cc(C(=O)c3ccc(S(C)(=O)=O)cc3)cc(C(F)(F)F)c2)CC1 [TZ59-092]
34 | > 1 | CCC(CC)CC1(O)CCN(C(=O)Nc2cc(C(=O)c3ccc(S(C)(=O)=O)cc3)cc(C(F)(F)F)c2)CC1 [TZ59-093]
35 | > 1 | COc1ccc(-n2c(=O)c3ccccc3n(CC(=O)Nc3cc(Cl)c(OC)cc3OC)c2=O)cc1 [TZ59-110]
36 | > 1 | COc1cc(OC)c(NC(=O)Cn2c(=O)n(CC(=O)Nc3cc(Cl)nc(Cl)c3)c(=O)c3ccccc32)cc1Cl [TZ59-112, N-(5-Chloro-2,4-dimethoxyphenyl)-2-(3-(2-((2,6-dichloropyridin-4-yl)amino)-2-oxoethyl)-2,4-dioxo-3,4-dihydroquinazolin-1(2H)-yl)acetamide]
37 | 0.0026 ± 0.0003 | COc1cc(OC)c(NC(=O)Cn2c(=O)n(CC(=O)Nc3ccc(O)cc3)c(=O)c3ccccc32)cc1Cl [TZ59-124, N-(5-Chloro-2,4-dimethoxyphenyl)-2-(3-(2-((4-hydroxyphenyl)amino)-2-oxoethyl)-2,4-dioxo-3,4-dihydroquinazolin-1(2H)-yl)acetamide]
38 | 0.0666 ± 0.0103 | COc1cc(OC)c(NC(=O)Cn2c(=O)n(CC(=O)NCCO)c(=O)c3ccccc32)cc1Cl [TZ59-130, N-(5-Chloro-2,4-dimethoxyphenyl)-2-(3-(2-((2-hydroxyethyl)amino)-2-oxoethyl)-2,4-dioxo-3,4-dihydroquinazolin-1(2H)-yl)acetamide]
39 | 0.0391 ± 0.007 | COc1cccc(NC(=O)Cn2c(=O)c3ccccc3n(CC(=O)Nc3cc(Cl)c(OC)cc3OC)c2=O)c1 [TZ59-131, N-(5-Chloro-2,4-dimethoxyphenyl)-2-(3-(2-((3-methoxyphenyl)amino)-2-oxoethyl)-2,4-dioxo-3,4-dihydroquinazolin-1(2H)-yl)acetamide]
40 | 0.0914 ± 0.0176 | COc1cc(OC)c(NC(=O)Cn2c(=O)n(CC(=O)NCCOCCO)c(=O)c3ccccc32)cc1Cl [TZ59-132, N-(5-Chloro-2,4-dimethoxyphenyl)-2-(3-(2-((2-(2-hydroxyethoxy)ethyl)amino)-2-oxoethyl)-2,4-dioxo-3,4-dihydroquinazolin-1(2H)-yl)acetamide]
41 | 0.204 ± 0.096 | COc1cc(OC)c(NC(=O)Cn2c(=O)n(CC(=O)NCCOCCOCCO)c(=O)c3ccccc32)cc1Cl [TZ59-133, N-(5-Chloro-2,4-dimethoxyphenyl)-2-(3-(2-((2-(2-(2-hydroxyethoxy)ethoxy)ethyl)amino)-2-oxoethyl)-2,4-dioxo-3,4-dihydroquinazolin-1(2H)-yl)acetamide]
42 | 0.376 ± 0.091 | CNC(=O)Cn1c(=O)c2ccccc2n(CC(=O)Nc2cc(Cl)c(OC)cc2OC)c1=O [TZ59-135, N-(5-Chloro-2,4-dimethoxyphenyl)-2-(3-(2-(methylamino)-2-oxoethyl)-2,4-dioxo-3,4-dihydroquinazolin-1(2H)-yl)acetamide]

Row | IC50 [µM] | SMILES
43 | 0.175 ± 0.013 | COc1cc(OC)c(NC(=O)Cn2c(=O)n(CC(=O)N(C)C)c(=O)c3ccccc32)cc1Cl [TZ59-136, 2-(1-(2-((5-Chloro-2,4-dimethoxyphenyl)amino)-2-oxoethyl)-2,4-dioxo-1,4-dihydroquinazolin-3(2H)-yl)-N,N-dimethylacetamide]
44 | > 1 | COc1ccccc1NC(=O)Cn1c(=O)[nH]c2ccccc2c1=O [TZ62-004]
45 | > 1 | COc1cc(OC)c(NC(=O)Cn2c(=O)n(CC(=O)NCCO)c(=O)c3ccccc32)cc1Cl [TZ62-007]
46 | 0.0549 ± 0.006 | COc1ccccc1NC(=O)Cn1c(=O)c2ccccc2n(CC(=O)Nc2cc(Cl)ccc2OC)c1=O [TZ62-008]
47 | > 1 | COc1ccccc1NC(=O)Cn1c(=O)c2ccccc2n(Cc2ccc(F)cc2)c1=O [TZ62-014]
48 | > 1 | COc1ccccc1NC(=O)Cn1c(=O)c2ccccc2n(CC(=O)c2ccc(F)cc2)c1=O [TZ62-016]
49 | > 1 | COc1cc(OC)c(NC(=O)CN2C(=O)N(CC(=O)O)Cc3ccccc32)cc1Cl [TZ62-017]
50 | > 1 | COc1cc(OC)c(NC(=O)CN2C(=O)N(CC(=O)Nc3ccccc3OC)Cc3ccccc32)cc1Cl [TZ62-018]
51 | > 1 | COc1ccc(C(=O)Cn2c(=O)n(CC(=O)Nc3ccccc3OC)c(=O)c3ccccc32)cc1 [TZ62-019]
52 | > 1 | COc1ccccc1NC(=O)Cn1c(=O)c2ccccc2n(CC(=O)c2ccccc2OC)c1=O [TZ62-020]
53 | 0.287 ± 0.069 | COc1ccc(C(=O)Cn2c(=O)n(CC(=O)Nc3ccccc3OC)c(=O)c3ccccc32)cc1Cl [TZ62-026]
54 | 0.293 ± 0.069 | CCOc1ccc(C(=O)Cn2c(=O)n(CCCC(=O)NC3CCCC3)c(=O)c3cc(Cl)ccc32)cc1Cl [TZ62-038]
55 | > 1 | COc1ccc(C(=O)Cn2c(=O)n(CCCC(=O)NC3CCCC3)c(=O)c3cc(Cl)ccc32)cc1Cl [TZ62-039]
56 | 0.085 ± 0.01 | CCOc1ccc(C(=O)Cn2c(=O)n(CCCC(=O)NC3CCCC3)c(=O)c3ccccc32)cc1Cl [TZ62-048]
57 | 0.396 ± 0.078 | COc1ccc(C(=O)Cn2c(=O)n(CCCC(=O)NC3CCCC3)c(=O)c3ccccc32)cc1Cl [TZ62-049]
58 | > 1 | CCOc1ccc(C(=O)Cn2c(=O)n(CCCC(=O)N3CCCC3)c(=O)c3ccccc32)cc1Cl [TZ62-050]
59 | > 1 | COc1ccc(C(=O)Cn2c(=O)n(CCCC(=O)N3CCCC3)c(=O)c3ccccc32)cc1Cl [TZ62-051]
60 | > 1 | CCOc1ccc(C(=O)Cn2c(=O)n(CCCC(=O)N3CCCC3)c(=O)c3cc(Cl)ccc32)cc1Cl [TZ62-052]
61 | > 1 | COc1ccc(C(=O)Cn2c(=O)n(CCCC(=O)N3CCCC3)c(=O)c3cc(Cl)ccc32)cc1Cl [TZ62-053]
62 | > 1 | COc1cc(OC)c(NC(=O)Cn2c(=O)n(Cc3ccccc3)c(=O)c3ccccc32)cc1Cl [TZ62-077]
63 | > 1 | COc1cc(OC)c(NC(=O)Cn2c(=O)n(CCO)c(=O)c3ccccc32)cc1Cl [TZ62-082]
